Results from paper PMC3660741, “Structure of a pore-blocking toxin in complex with a eukaryotic voltage-dependent K^+ channel” (eLife, 2013).

Legend:
[1] = molecular target: Kv2.1 paddle–Kv1.2 chimera channel in complex with the rat β2-core subunit (rat) (UniProt P63142); assay: planar lipid bilayer electrophysiology (inhibition of channel current)
[2] = system: Shaker K+ channel; details: cited from earlier work
Description: In studies with the BK channel, [MacKinnon and Miller (1988)] first observed that permeant ions coming through the channel from the intracellular side enhance the dissociation of a toxin bound to its receptor on the extracellular side.

[3] = system: BK channel; details: 1988, cited from earlier work
Description: Charybdotoxin (CTX; Figure 1B), a pore-blocking toxin for K^+ channels, is a 37-residue peptide isolated from the venom of the scorpion Leiurus quinquestriatus ([Miller et al., 1985]).

[4] = molecular target: paddle chimera; details: planar lipid bilayers; ref Tao and MacKinnon, 2008; read-out: Kd (inhibition of paddle chimera); cited from earlier work
[5] = molecular target: T1, Kv2.1 paddle–Kv1.2 chimera channel (paddle chimera) (Rattus norvegicus, UniProt P63142, DEL270-295/F267Y/F302L/I268V/INS296[…]/L298I/N207Q/V299M/V301I); assay: CTX inhibition of paddle chimera in planar lipid bilayer, dose-response fitted for Kd; format: biochemical; details: CsCl vs KCl on both sides; planar bilayer of 20 mg/ml DPhPC; holding −110 mV, pulsed to +110 mV; n = 2–4
T1 construct: made in house; host or cells: Pichia pastoris
Description: Figure 8. Effects of Lys27Met mutation of CTX and Cs^+ separately on toxin-channel interactions. (A) CTX inhibition. The fraction of unblocked current (I/Imax, mean ± SEM or range of mean; n = 2–4) is graphed as a function of CTX concentration (in nM) and fit to the equation I/Imax = 0.1 + 0.9 × (1 + [CTX]/Kd)^−1. Voltage pulses: holding −110 mV, depolarized to +110 mV, followed by a step back to −110 mV. Paddle chimera–wild-type CTX with KCl on both sides is shown in red, paddle chimera–wild-type CTX with CsCl on both sides is shown in blue and paddle chimera–Lys27Met CTX with KCl on both sides is shown in black. The modified equation accounts for approximately 10% current that is due largely to the channels facing the other side and are not blocked by toxin. (B) The pore domains from two diagonal subunits of paddle chimera (molecule A) in the Lys27MetCTX–paddle chimera complex are shown in green α carbon trace and a toxin-omit weighted 2Fo − Fc electron density map is shown in wire mesh at 1σ contour level. […]
The membranes were held at −110 mV and repeatedly pulsed to +110 mV test voltage. CTX inhibition data measured with different concentrations of CTX or Lys27Met mutant of CTX were fit to the equation: I/Imax=0.1+0.9×(1+[CTX]/Kd)^−1. […]

[6] = system: Thr449Cys(Shaker); details: Gly10Val(AgTx2)–Thr449Cys(Shaker) pair; ref Ranganathan et al., 1996; cited from earlier work
Description: (§1) From analyzing mutants of AgTx2 and Shaker, MacKinnon and Ranganathan derived a coupling energy of >3 kT for the Gly10Val(AgTx2)–Phe425Gly(Shaker) pair and ∼1.5 kT for the Gly10Val(AgTx2)–Thr449Cys(Shaker) pair ([Ranganathan et al., 1996]). Phe425 and Thr449 in Shaker map onto Gln353 and Val377 in paddle chimera (Figure 2B).

[7] = system: Phe425Gly(Shaker); details: Gly10Val(AgTx2)–Phe425Gly(Shaker) pair; ref Ranganathan et al., 1996; cited from earlier work
Description: as §1

[8] = system: Tyr445Phe(Shaker); details: ref Ranganathan et al., 1996, cited from earlier work
Description: Another case worth highlighting is the coupling energy, ∼1.5 kT, between the Lys27Met(AgTx2)–Tyr445Phe(Shaker) pair. Tyr445 in Shaker maps to Tyr373 in paddle chimera (Figure 2B; [Ranganathan et al., 1996]). Since mutation of Tyr to Phe incurs only a loss of the hydroxyl group, one likely interpretation of this would have been that Lys27 contacts the hydroxyl group of Tyr445. Intriguingly, Lys27 only contacts the backbone carbonyl oxygen of Tyr445, a point farthest from the hydroxyl group (Figure 10B). However, since this is a tightly packed part of the protein structure with the hydroxyl grou ...

T1 sequence (P63142 with tags, fused parts or gaps with the stated changes): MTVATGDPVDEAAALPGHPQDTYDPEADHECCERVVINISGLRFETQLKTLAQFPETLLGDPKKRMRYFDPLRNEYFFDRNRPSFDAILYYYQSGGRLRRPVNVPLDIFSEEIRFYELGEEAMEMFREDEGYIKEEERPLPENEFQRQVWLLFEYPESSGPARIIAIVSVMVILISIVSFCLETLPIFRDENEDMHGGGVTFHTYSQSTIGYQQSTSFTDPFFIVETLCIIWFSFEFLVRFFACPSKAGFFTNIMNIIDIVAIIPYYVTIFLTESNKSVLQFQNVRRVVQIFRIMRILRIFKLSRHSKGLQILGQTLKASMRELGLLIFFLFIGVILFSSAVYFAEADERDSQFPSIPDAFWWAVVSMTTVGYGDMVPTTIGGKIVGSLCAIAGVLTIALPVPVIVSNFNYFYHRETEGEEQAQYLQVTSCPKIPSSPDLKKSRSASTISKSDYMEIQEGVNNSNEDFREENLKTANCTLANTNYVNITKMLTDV
T1 sequence (P62483 36-367 partner limits assumed): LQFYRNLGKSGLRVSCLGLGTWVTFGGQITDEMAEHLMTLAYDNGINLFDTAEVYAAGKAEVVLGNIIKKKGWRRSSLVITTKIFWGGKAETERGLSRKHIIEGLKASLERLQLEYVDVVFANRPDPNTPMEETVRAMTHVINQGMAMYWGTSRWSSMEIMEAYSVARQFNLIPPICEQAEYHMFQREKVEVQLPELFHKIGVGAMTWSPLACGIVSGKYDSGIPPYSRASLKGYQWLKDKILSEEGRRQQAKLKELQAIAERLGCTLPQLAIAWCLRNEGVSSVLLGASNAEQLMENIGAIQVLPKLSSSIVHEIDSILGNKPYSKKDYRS
Chain of charybdotoxin, wild type (P13487 23-59): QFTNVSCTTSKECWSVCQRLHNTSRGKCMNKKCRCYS

## charybdotoxin, wild type (from UniProt P13487 23-59) (peptide)
[1]
  fold reduction of affinity in Cs+ against K+: 10 fold

## charybdotoxin [CTX]
[2]; ref Goldstein and Miller, 1993
  trans-enhanced dissociation effect of permeant ions on CTX block: subsequently confirmed for Shaker as well
[3]; ref Anderson et al.
  channel states competent for toxin binding: both the open and closed states of the channel are competent for toxin binding
  role of electrostatic interactions in affinity: electrostatic interactions play an important role in enhancing the toxin’s affinity
[3]; results from trans-enhanced dissociation by permeant ions entering from the intracellular side, ref MacKinnon and Miller
  voltage dependence of affinity: voltage dependent
[4]
  Kd: ~20 nM
[5]
  reduction in affinity in the presence of Cs+ compared to K+: ~10 fold

## mutation of Lys27 to Arginine: conservative mutation of Lys27 to Arginine, literature CTX mutant (Goldstein et al., 1994)
[2]; conservative mutation of Lys27 to Arginine, Shaker, ref Goldstein et al., 1994
  destabilization of the toxin-channel complex: ~1000 fold

## Gly10Val(AgTx2): Gly10Val mutant of AgTx2 (Ranganathan et al., 1996)
[6]
  coupling energy: ~1.5 kT
[7]
  coupling energy: > 3 kT

## Lys27Met(AgTx2): Lys27Met mutant of AgTx2 (Ranganathan et al., 1996)
[8]; Lys27 (AgTx2) and Tyr445 (Shaker)
  K+ dependence of the interaction between the two residues: dependent on the K^+ concentration
[8]; Lys27Met(AgTx2)–Tyr445Phe(Shaker) pair
  coupling energy: ~1.5 kT
